The subject of this test is P388 leukemia ip, CD2F1 mice, survival T/C. Nature of the test: NCI In Vivo Anticancer Drug Screen. Data for tumor model P388 Leukemia (intraperitoneal) in CD2F1 (CDF1) mice. Particulars: endpoint: median survival time, higher = longer survival. In a few lines:
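Mice carrying the transplanted tumor received test compound or vehicle. Survival was recorded in each group, and the value is the treated-group measurement divided by that of the vehicle-treated control group.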

The mark [1] stands for this setting: dose: 50.0 mg/kg/injection, schedule: Q01DX005 (ip), vehicle: Klucel (hydroxypropylcellulose) (HPC).
Where [2] appears, read: dose: 100.0 mg/kg/injection, schedule: Q01DX005 (ip), vehicle: Klucel (hydroxypropylcellulose) (HPC).
Where [3] appears, read: dose: 200.0 mg/kg/injection, schedule: Q01DX005 (ip), vehicle: Klucel (hydroxypropylcellulose) (HPC).
The mark [4] stands for this setting: dose: 50.0 mg/kg/injection, schedule: Q01DX005 (ip), vehicle: saline with Tween-80.
Setting [5] is: dose: 100.0 mg/kg/injection, schedule: Q01DX005 (ip), vehicle: saline with Tween-80.
The mark [6] stands for this setting: dose: 200.0 mg/kg/injection, schedule: Q01DX005 (ip), vehicle: saline with Tween-80.
Where [7] appears, read: dose: 100.0 mg/kg/injection, schedule: Q04DX003 (ip), vehicle: saline with Tween-80.
Where [8] appears, read: dose: 6.25 mg/kg/injection, schedule: Q01DX009 (ip), vehicle: saline with Tween-80.
Where [9] appears, read: dose: 12.5 mg/kg/injection, schedule: Q01DX009 (ip), vehicle: saline with Tween-80.
Where [10] appears, read: dose: 50.0 mg/kg/injection, schedule: Q01DX009 (ip), vehicle: saline with Tween-80.
Setting [11] is: dose: 100.0 mg/kg/injection, schedule: Q01DX009 (ip), vehicle: saline with Tween-80.
Setting [12] is: dose: 12.5 mg/kg/injection, schedule: Q01DX005 (ip), vehicle: saline with Tween-80.
Where [13] appears, read: dose: 25.0 mg/kg/injection, schedule: Q01DX005 (ip), vehicle: saline with Tween-80.
Where [14] appears, read: dose: 100.0 mg/kg/injection, schedule: Q04DX002 (ip), vehicle: saline with Tween-80.
Setting [15] is: dose: 200.0 mg/kg/injection, schedule: Q04DX002 (ip), vehicle: saline with Tween-80.
[16] abbreviates: dose: 25.0 mg/kg/injection, schedule: Q01DX009 (ip), vehicle: saline with Tween-80.
The mark [17] stands for this setting: dose: 200.0 mg/kg/injection, schedule: Q01DX009 (ip), vehicle: saline with Tween-80.

“And” between values parts separate entries of the source, which are not always exact repeats. Equal values may be shown once. Inconclusive results and toxic doses are left out.

25 compounds from PubChem BioAssay AID330 (DTP/NCI, 2004) can be followed below.

As to `CCCOC(=O)/C=C/C(=O)N1CC(C)N(C(=O)/C=C/C(=O)OCCC)CC1C` (stereo not drawn), the T/C runs as follows: under setting [1], 109 % of control; under setting [2], 98 % of control; under setting [3], 98 % of control.
Regarding `CCOc1cc2c(cc1C/C=C/c1ccccc1)OCO2`, the T/C is 100 % of control under setting [4], 110 % of control under setting [5] and 101 % of control under setting [6].
Consider `Cc1c(C)n(-c2ccccc2)c2nc(C)n(-c3ccccc3)c(=N)c12`, for which the T/C reads like this: under setting [1], 101 % of control; under setting [2], 100 % of control.
Turning to `N#CC(c1ccccc1)(N1CCOCC1)N1CCOCC1`, the T/C (dose: 6.25 mg/kg/injection, schedule: Q04DX003 (ip), vehicle: saline) was 101 % of control and 97 % of control; the T/C (dose: 12.5 mg/kg/injection, schedule: Q04DX003 (ip), vehicle: saline) was 100 % of control and 101 % of control; the T/C (dose: 25.0 mg/kg/injection, schedule: Q04DX003 (ip), vehicle: saline) is 100 % of control and 101 % of control (2×); the T/C under setting [7] was 100 % of control.
Consider `Nc1cc2c3c(cccc3c1)C(=O)N(CCN1CCCC1)C2=O`, for which the T/C runs as follows: under setting [8], 102 % of control; (dose: 6.5 mg/kg/injection, schedule: Q01DX009 (ip), vehicle: saline with Tween-80) 122 % of control; (dose: 12.1 mg/kg/injection, schedule: Q01DX009 (ip), vehicle: saline with Tween-80) 163 % of control; under setting [9], 110 % of control; (dose: 24.2 mg/kg/injection, schedule: Q01DX009 (ip), vehicle: saline with Tween-80) 160 % of control and 180 % of control; (dose: 48.39 mg/kg/injection, schedule: Q01DX009 (ip), vehicle: saline with Tween-80) 86 % of control and 96 % of control. Besides, the T/C under setting [10] is 173 % of control and the T/C under setting [11] is 189 % of control.
Turning to `COC(=O)C(CSCc1ccccc1)NC(=O)CCNC(C)=O` (stereo not drawn), the T/C by setting is: (dose: 12.5 mg/kg/injection, schedule: Q01DX009 (ip), vehicle: distilled water + Tween-80) 97 % of control; (dose: 25.0 mg/kg/injection, schedule: Q01DX009 (ip), vehicle: distilled water + Tween-80) 100 % of control; (dose: 50.0 mg/kg/injection, schedule: Q01DX009 (ip), vehicle: distilled water + Tween-80) 91 % of control; (dose: 100.0 mg/kg/injection, schedule: Q01DX009 (ip), vehicle: distilled water + Tween-80) 92 % of control; (dose: 200.0 mg/kg/injection, schedule: Q01DX009 (ip), vehicle: distilled water + Tween-80) 91 % of control.
For `CCOP(=S)(N/N=C/c1ccc(C)s1)OCC`, the T/C reads like this: under setting [1], 110 % of control; under setting [2], 112 % of control; under setting [3], 117 % of control.
Regarding `Cc1ccc(Cl)cc1N=Cc1cccs1`, the T/C (dose: 50.0 mg/kg/injection, schedule: Q01DX009 (ip), vehicle: Klucel (hydroxypropylcellulose) (HPC)) is 97 % of control; the T/C (dose: 100.0 mg/kg/injection, schedule: Q01DX009 (ip), vehicle: Klucel (hydroxypropylcellulose) (HPC)) was 105 % of control; the T/C (dose: 200.0 mg/kg/injection, schedule: Q01DX009 (ip), vehicle: Klucel (hydroxypropylcellulose) (HPC)) was 108 % of control.
Regarding `CC(=O)OC1C(=C(Br)Br)C(COC(=O)c2ccccc2)OC1n1cnc2c(NC(=O)c3ccccc3)ncnc21` (stereo not drawn), the T/C (dose: 100.0 mg/kg/injection, schedule: Q01DX001 (ip), vehicle: saline with Tween-80) was 98 % of control; the T/C (dose: 200.0 mg/kg/injection, schedule: Q01DX001 (ip), vehicle: saline with Tween-80) was 90 % of control; the T/C (dose: 400.0 mg/kg/injection, schedule: Q01DX001 (ip), vehicle: saline with Tween-80) was 92 % of control.
Regarding `O=C(O)c1c2ccccc2nc2ccccc12`, the T/C was 106 % of control and 93 % of control under setting [12]; 100 % of control and 95 % of control under setting [13]; 104 % of control and 113 % of control and 121 % of control under setting [4].
In the case of `CCn1cc(C(=O)O)c(=O)c2ccc(C)nc21` (tested in a mixture with another compound), the T/C runs as follows: under setting [14], 99 % of control; under setting [15], 91 % of control.
For the compound `O/N=c1\cc(-c2ccccc2)oc2ccccc12`, the T/C (dose: 16.7 mg/kg/injection, schedule: Q01DX009 (ip), vehicle: saline with Tween-80) is 97 % of control; the T/C under setting [16] was 102 % of control; the T/C (dose: 37.5 mg/kg/injection, schedule: Q01DX009 (ip), vehicle: saline with Tween-80) is 100 % of control.
On to `Nc1nnc(-c2ccccc2)nn1`, for which the T/C was 91 % of control (dose: 50.0 mg/kg/injection, schedule: Q01DX005 (ip), vehicle: Klucel + Tween-80); 95 % of control (dose: 100.0 mg/kg/injection, schedule: Q01DX005 (ip), vehicle: Klucel + Tween-80); 100 % of control (dose: 200.0 mg/kg/injection, schedule: Q01DX005 (ip), vehicle: Klucel + Tween-80).
As to `COc1cc(NC(=O)CCl)ccc(=O)c1`, the T/C was 95 % of control under setting [9] and 113 % of control under setting [16].
Regarding `O=C(Nc1cc(-c2ccccc2)[nH]n1)c1ccc(Cl)cc1`, the T/C is 102 % of control (dose: 60.0 mg/kg/injection, schedule: Q01DX005 (ip), vehicle: saline with Tween-80); 93 % of control (dose: 120.0 mg/kg/injection, schedule: Q01DX005 (ip), vehicle: saline with Tween-80); 93 % of control (dose: 240.0 mg/kg/injection, schedule: Q01DX005 (ip), vehicle: saline with Tween-80).
Consider `COc1ccc(S(=O)(=O)NNS(=O)(=O)c2ccc(OC)c(OC)c2)cc1OC`, for which the T/C runs as follows: under setting [12], 95 % of control; under setting [13], 99 % of control; under setting [4], 94 % of control and 96 % of control.
As for `[CH3][Ge]1([CH3])[CH2]C(c2ccccc2)=C(c2ccccc2)[CH2]1`, the T/C reads like this: (dose: 60.0 mg/kg/injection, schedule: Q01DX005 (ip), vehicle: Klucel (hydroxypropylcellulose) (HPC)) 99 % of control; (dose: 120.0 mg/kg/injection, schedule: Q01DX005 (ip), vehicle: Klucel (hydroxypropylcellulose) (HPC)) 94 % of control; (dose: 240.0 mg/kg/injection, schedule: Q01DX005 (ip), vehicle: Klucel (hydroxypropylcellulose) (HPC)) 90 % of control.
For `COc1ccc(/C=N\N=C(/[O-])c2ccccc2O)cc1.COc1ccc(/C=N\N=C(/[O-])c2ccccc2O)cc1.[OH3+].[OH3+].[Zn+2]`, the T/C under setting [14] is 100 % of control; the T/C under setting [15] is 98 % of control; the T/C (dose: 400.0 mg/kg/injection, schedule: Q04DX002 (ip), vehicle: saline with Tween-80) is 91 % of control.
As for `O=C(CC(c1ccccc1)c1ccccc1)c1ccccc1`, the T/C reads like this: under setting [10], 86 % of control; under setting [11], 90 % of control; under setting [17], 88 % of control; (dose: 400.0 mg/kg/injection, schedule: Q01DX009 (ip), vehicle: saline with Tween-80) 89 % of control.
As to `CSC(=O)NC(=O)NC(=O)c1ccc([N+](=O)[O-])cc1`, the T/C is 91 % of control under setting [1] and 91 % of control under setting [2].
As to `Cc1cnc(C#N)c(Cl)n1`, the T/C was 100 % of control under setting [11]; 110 % of control under setting [7]; 115 % of control under setting [17]; 110 % of control (dose: 200.0 mg/kg/injection, schedule: Q04DX003 (ip), vehicle: saline with Tween-80); 100 % of control (dose: 400.0 mg/kg/injection, schedule: Q04DX003 (ip), vehicle: saline with Tween-80).
Turning to `O=[N+]([O-])c1ccc2nc(Cl)sc2c1`, the T/C reads like this: under setting [16], 95 % of control; under setting [10], 90 % of control; under setting [11], 109 % of control.
Regarding `CC(C)=CCSc1ccccc1`, the T/C was 104 % of control (dose: 100.0 mg/kg/injection, schedule: Q04DX002 (ip), vehicle: Klucel (hydroxypropylcellulose) (HPC)); 106 % of control (dose: 200.0 mg/kg/injection, schedule: Q04DX002 (ip), vehicle: Klucel (hydroxypropylcellulose) (HPC)); 109 % of control (dose: 400.0 mg/kg/injection, schedule: Q04DX002 (ip), vehicle: Klucel (hydroxypropylcellulose) (HPC)).
As for `ON(C=S)c1ccccc1`, the T/C is, setting by setting: under setting [4], 102 % of control; under setting [5], 105 % of control; under setting [6], 97 % of control.
Take `CN1CCCN(C(c2ccccc2)c2ccc(Cl)cc2)CC1` (stereo not drawn): the T/C by setting is: under setting [8], 107 % of control; under setting [9], 114 % of control and 115 % of control; under setting [16], 107 % of control and 114 % of control; under setting [10], 120 % of control.
